Laboratory results taken from the CheMixHub viscosity set.

Test: xn = mol fraction of the nth substance listed

CC(C)(C)O + Cc1ccccc1
viscosity [mPa·s]
Details	298.15 K	303.15 K	308.15 K	313.15 K	318.15 K
101 kPa, x2 = 0.1121	2.432	1.991	1.63	1.282	1.05
101 kPa, x2 = 0.1785	1.717	1.462	1.245	1.027	0.8744
101 kPa, x2 = 0.3151	1.113	0.9909	0.8824	0.7677	0.6837
101 kPa, x2 = 0.3919	0.9507	0.8583	0.7749	0.6855	0.6188
101 kPa, x2 = 0.4958	0.7975	0.7306	0.6693	0.6025	0.552
101.33 kPa, x2 = 0.1003	–	1.981	1.622	1.328	–
101.33 kPa, x2 = 0.1723	–	1.455	1.239	1.059	–
101.33 kPa, x2 = 0.3109	–	0.986	0.878	0.781	–
101.33 kPa, x2 = 0.3886	–	0.854	0.771	0.696	–
101.33 kPa, x2 = 0.4942	–	0.727	0.666	0.611	–
101.33 kPa, x2 = 0.6059	–	0.644	0.594	0.548	–
101.33 kPa, x2 = 0.7118	–	0.588	0.547	0.51	–
101.33 kPa, x2 = 0.8135	–	0.549	0.518	0.486	–
101.33 kPa, x2 = 0.9107	–	0.521	0.49	0.46	–

Nc1ccccc1 + CN(C)C=O
viscosity [mPa·s], 101.33 kPa
Details	x2 = 0.1013	x2 = 0.203	x2 = 0.3061	x2 = 0.4006	x2 = 0.5013	x2 = 0.6024	x2 = 0.6967	x2 = 0.8002	x2 = 0.9059
303.15 K	2.783	2.508	2.273	2.048	1.812	1.571	1.341	1.115	0.908
313.15 K	2.131	1.957	1.793	1.64	1.474	1.3	1.135	0.96	0.801

Nc1ccccc1 + Cc1ccccc1
viscosity [mPa·s], 101 kPa
Details	298.15 K	303.15 K	308.15 K	313.15 K
x1 = 0.0977	0.62	0.576	0.545	0.495
x1 = 0.1155	–	–	0.5602	–
x1 = 0.116	0.5955	–	–	–
x1 = 0.198	0.701	0.653	0.615	0.57
x1 = 0.2272	0.681	–	–	–
x1 = 0.2298	–	–	0.7052	–
x1 = 0.3004	0.814	0.752	0.72	0.65
x1 = 0.3224	–	–	0.7335	–
x1 = 0.3354	0.8149	–	–	–
x1 = 0.3917	0.94	0.867	0.803	0.74
x1 = 0.4199	–	–	0.8736	–
x1 = 0.4399	0.9747	–	–	–
x1 = 0.4993	1.146	1.074	0.954	0.872
x1 = 0.5404	1.169	–	–	–
x1 = 0.5446	–	–	1.039	–
x1 = 0.6003	1.406	1.253	1.139	1.03
x1 = 0.6191	–	–	1.19	–
x1 = 0.6382	1.427	–	–	–
x1 = 0.69	–	–	1.391	–
x1 = 0.6978	1.723	1.522	1.367	1.216
x1 = 0.7815	–	–	1.647	–
x1 = 0.8009	2.199	1.907	1.696	1.486
x1 = 0.835	–	–	1.891	–
x1 = 0.8998	2.822	2.423	2.122	1.863
